Assay results reported in patent publication US7176199B2, “Aryl-substituted alicyclic compound and medical composition comprising the same” (Dainippon Pharmaceutical Co., Ltd., priority 2001, dated 2007).
Read-outs that look alike come from different tables or passages of the source.

Legend:
[1] = target: GPIIb/IIIa (Homo sapiens, UniProt P05106+P08514); conditions: read-out: GPIIb/IIIa inhibitory activity IC50 value, cited from earlier work
[2] = target: T1, αvβ3 integrin (Homo sapiens, UniProt P05106+P06756); conditions: reported in WO 99/52872; read-out: αvβ3 integrin inhibitory activity IC50 value; cited from earlier work
[3] = target: T2, αIIbβ3 integrin (Homo sapiens, UniProt P05106+P08514); test: Assay for the inhibition of αIIbβ3 integrin binding (fibrinogen as ligand, integrin captured from platelet lysate); conditions: inhibition of specific binding of biotinylated fibrinogen to αIIbβ3 integrin from human platelet lysate
T2 construct: from tissue; host or cells: human platelets (Triton X-100 lysate)
Procedure: Experiment 2: Assay for the Inhibition of αIIbβ3 Integrin Binding
This experiment was carried out based on the method described in Thromb. Haemostasis, 75, 339 (1996), Blood, 93, 2559 (1999), using fibrinogen as a ligand. According to the method described in the above literatures, assay for the inhibition of αIIbβ3 integrin binding can be achieved by capturing αIIbβ3 integrin from platelet lysate with the use of an activated antibody against αIIbβ3 integrin.
Human platelets were isolated in a conventional manner. At 25° C., the isolated platelets were adjusted to a concentration of 1.25×10^9/ml with TBS+[50 mM Tris-HCl (pH 7.4), 150 mM NaCl, 2 mM CaCl2], and then ⅛ volume of TBS^+ containing 2 mM leupepsin and 10 mM PMSF was added and stirred gently. Nest, 1/9 volume of TBS+ containing 10% Triton X-100 was added and stirred gently. After standing on ice for 30 minutes, a platelet lysate was prepared from the mixture by discarding the insoluble fraction with centrifugation (10,000 g, 15 minutes).
Anti-mouse IgG goat antibody (Jackson Immunoresearch Laboratories, Inc., USA) was adjusted to a concentration of 5 μg/ml with sodium carbonate buffer (pH 9.6) and added to plates at 50 μl/well. The plate was left at 4° C. overnight for immobilization of the antibody. All subsequent steps were done at 25° C., and the procedure for each well was described hereafter.
The well was washed once with TBS^+, and then 200 μl of TBS^+ containing 5% BSA was added to the well and left for one hour for blocking. The well was washed with a reaction solution (TBS^+ containing 0.1% BSA and 0.05% Triton X-100) 4 times, and then 50 μl of anti-human αIIbβ3 integrin activated monoclonal antibody (TAKARA SHUZO CO., LTD, Japan, PT25-2 strain) adjusted to 5 μg/ml with the reaction solution was added to the well. After one hour reaction, the well was washed 4 times with the reaction solution, and 50 μl of the platelet lysate diluted 1:2 with the reaction solution was added to the well. Following 2 hours reaction, the well was washed 4 times with the reaction solution, and 50 μl of the reaction solution was added to the well. Subsequently, 25 μl of a test compound solution adjusted to each concentration with the reaction solution was added, and then mixed with 25 μl of biotinylated fibrinogen (Calbiochem, Germany) adjusted to 2 μg/ml with the reaction solution. The mixture was reacted for one hour. After washing 4 times with the reaction solution, 100 μl of alkaline phosphatase-labeled streptoavidin (Gibco BRL, USA) diluted 1:500 with the reaction solution was added to the well. Following 30 minutes reaction, the well was washed 4 times with the wash solution. Next, 50 μl of the NaDPH solution (Invitrogen, former company name: Gibco BRL, USA) was added and reacted for 20 minutes, and then 50 μl of an amplification solution containing diaphorase and alcohol dehydrogenase (Invitrogen, former company name: Gibco BRL, USA) was added. Color was developed for 20 minutes and the reaction was stopped by adding 50 μl of 0.5 M sulfuric acid.
(§1) The absorbance at 495 nm was measured with a plate reader to obtain a total binding. To obtain a nonspecific binding, EDTA adjusted to 20 mM with the reaction solution was added instead of the test compound solution. A specific binding was calculated by subtracting the nonspecific binding from the total binding.

[4] = target: T1, αvβ3 integrin; test: Assay for the inhibition of αvβ3 integrin binding (vitronectin as ligand); set-up: purchased Chemicon International, Inc., USA; conditions: inhibition of specific binding of biotinylated human vitronectin to immobilized αvβ3 integrin
Procedure: Experiment 1: Assay for the Inhibition of αvβ3 integrin binding
This experiment was carried out based on the method described in […].
Purified human αvβ3 integrin (Chemicon International, Inc., USA) was adjusted to a concentration of 1 μg/ml with TBS^++ [20 mM Tris-HCl (pH 7.4), 150 mM NaCl, 1 mM CaCl2, 1 mM MgCl2], and the diluted solution was added to plates (Labsystems, Finland) at 50 μl/well. The plate was left at 4° C. overnight for immobilization of the αvβ3 integrin. All subsequent steps were done at 25° C., and the procedure for each well was described hereafter.
The solution was discarded, and then 200 μl of TBS^++ containing 1% BSA (Wako Pure Chemical Industries, Ltd., Japan) was added to the well and left for one hour for blocking. The well was washed with a wash solution (TBS^++ containing 0.01% Tween 20) 4 times, and 50 μl of a reaction solution (TBS^++ containing 0.1% BSA and 0.01% Tween 20) was added to the well. Subsequently, 25 μl of a test compound solution adjusted to each concentration with the reaction solution was added, and then mixed with 25 μl of biotinylated (Amersham Pharmacia Biotech, UK) human vitronectin (Gibco BRL, USA) adjusted to 0.4 μg/ml with the reaction solution. The mixture was reacted for 2 hours. After washing 4 times with the wash solution, 100 μl of peroxidase-labeled streptoavidin (Amersham Pharmacia Biotech, UK) diluted 1:500 with the reaction solution was added to the well. Following 30 minutes reaction, the well was washed 4 times with the wash solution, and 100 μl of a TMB substrate solution (Bio-Rad Laboratories, USA) was added to the well. Color was developed for 20 minutes and the reaction was stopped by adding 100 μl of 0.5 M sulfuric acid.
as §1, with “450” for “495”, “reader (Molecular Devices, USA)” for “reader”

T1 sequence (P06756 31-889 limits assumed): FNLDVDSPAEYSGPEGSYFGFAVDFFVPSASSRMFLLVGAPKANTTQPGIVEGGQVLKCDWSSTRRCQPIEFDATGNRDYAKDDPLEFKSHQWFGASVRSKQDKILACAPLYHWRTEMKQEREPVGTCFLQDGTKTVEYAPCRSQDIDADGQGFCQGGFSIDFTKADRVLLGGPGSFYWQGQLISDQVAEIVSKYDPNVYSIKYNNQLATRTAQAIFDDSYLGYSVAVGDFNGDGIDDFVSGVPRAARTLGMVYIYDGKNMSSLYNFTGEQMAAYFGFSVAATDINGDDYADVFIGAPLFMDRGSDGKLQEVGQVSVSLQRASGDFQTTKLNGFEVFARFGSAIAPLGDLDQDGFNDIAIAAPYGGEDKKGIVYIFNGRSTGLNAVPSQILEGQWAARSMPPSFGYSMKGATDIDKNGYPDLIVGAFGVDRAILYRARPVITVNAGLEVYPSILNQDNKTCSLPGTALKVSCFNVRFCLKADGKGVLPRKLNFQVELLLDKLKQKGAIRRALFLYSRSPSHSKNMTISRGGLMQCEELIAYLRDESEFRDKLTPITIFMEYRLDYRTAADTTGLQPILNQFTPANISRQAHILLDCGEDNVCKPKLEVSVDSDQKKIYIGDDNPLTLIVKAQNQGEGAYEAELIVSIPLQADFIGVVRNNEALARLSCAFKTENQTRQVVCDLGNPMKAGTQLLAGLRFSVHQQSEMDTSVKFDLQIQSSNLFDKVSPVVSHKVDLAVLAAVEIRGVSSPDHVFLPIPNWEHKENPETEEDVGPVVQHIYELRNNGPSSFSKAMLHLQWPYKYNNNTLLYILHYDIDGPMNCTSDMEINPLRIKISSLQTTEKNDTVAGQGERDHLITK
T1 sequence (P06756 891-1048 partner limits assumed): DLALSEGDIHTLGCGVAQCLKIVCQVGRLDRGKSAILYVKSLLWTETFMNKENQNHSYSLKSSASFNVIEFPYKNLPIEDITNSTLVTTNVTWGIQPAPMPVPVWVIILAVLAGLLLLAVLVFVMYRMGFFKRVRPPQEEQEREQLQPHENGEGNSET
T1 sequence (P05106 27-788): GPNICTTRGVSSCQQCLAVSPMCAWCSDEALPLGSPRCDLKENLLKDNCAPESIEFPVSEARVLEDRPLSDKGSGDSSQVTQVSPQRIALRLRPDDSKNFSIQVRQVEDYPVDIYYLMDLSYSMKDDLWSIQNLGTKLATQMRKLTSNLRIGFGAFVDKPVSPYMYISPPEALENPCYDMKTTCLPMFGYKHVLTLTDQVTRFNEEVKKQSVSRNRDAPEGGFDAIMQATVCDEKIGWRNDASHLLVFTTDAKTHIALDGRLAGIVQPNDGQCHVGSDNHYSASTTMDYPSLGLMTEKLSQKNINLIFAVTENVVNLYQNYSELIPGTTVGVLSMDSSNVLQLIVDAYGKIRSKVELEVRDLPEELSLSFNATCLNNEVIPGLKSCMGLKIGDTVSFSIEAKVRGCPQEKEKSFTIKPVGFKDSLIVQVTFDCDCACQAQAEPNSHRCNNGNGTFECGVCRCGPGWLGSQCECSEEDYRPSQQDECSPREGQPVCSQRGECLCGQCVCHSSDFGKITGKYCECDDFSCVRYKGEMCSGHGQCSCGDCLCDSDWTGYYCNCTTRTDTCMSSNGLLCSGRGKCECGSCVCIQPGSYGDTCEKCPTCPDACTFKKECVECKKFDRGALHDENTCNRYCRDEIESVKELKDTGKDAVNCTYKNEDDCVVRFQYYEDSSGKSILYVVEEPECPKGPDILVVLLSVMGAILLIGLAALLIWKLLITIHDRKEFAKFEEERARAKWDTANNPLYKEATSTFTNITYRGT
T2 sequence (P08514 32-887 limits assumed): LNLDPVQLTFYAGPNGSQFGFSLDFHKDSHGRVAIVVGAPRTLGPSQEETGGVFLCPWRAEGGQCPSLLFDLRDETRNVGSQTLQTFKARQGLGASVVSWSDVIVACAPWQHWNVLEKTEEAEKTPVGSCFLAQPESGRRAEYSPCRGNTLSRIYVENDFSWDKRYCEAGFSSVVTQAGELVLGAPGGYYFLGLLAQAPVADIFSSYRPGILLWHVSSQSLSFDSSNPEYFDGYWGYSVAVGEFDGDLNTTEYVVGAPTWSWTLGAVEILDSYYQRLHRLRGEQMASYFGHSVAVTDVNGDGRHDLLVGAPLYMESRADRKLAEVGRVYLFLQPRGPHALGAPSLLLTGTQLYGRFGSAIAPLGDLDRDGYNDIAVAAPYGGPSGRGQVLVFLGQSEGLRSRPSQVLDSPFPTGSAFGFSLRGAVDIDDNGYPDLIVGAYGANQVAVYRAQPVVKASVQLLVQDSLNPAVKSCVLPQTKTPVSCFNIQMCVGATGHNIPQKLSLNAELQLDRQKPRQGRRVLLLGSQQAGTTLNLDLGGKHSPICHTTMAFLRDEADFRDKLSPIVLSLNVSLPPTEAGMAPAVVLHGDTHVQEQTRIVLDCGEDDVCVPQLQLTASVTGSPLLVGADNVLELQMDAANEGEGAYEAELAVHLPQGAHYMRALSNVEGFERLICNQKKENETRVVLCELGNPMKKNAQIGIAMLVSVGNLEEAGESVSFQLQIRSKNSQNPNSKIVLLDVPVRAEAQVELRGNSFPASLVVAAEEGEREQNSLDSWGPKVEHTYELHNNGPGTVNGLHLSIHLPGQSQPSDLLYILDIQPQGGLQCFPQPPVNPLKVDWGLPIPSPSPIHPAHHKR
T2 sequence (P08514 891-1039 partner limits assumed): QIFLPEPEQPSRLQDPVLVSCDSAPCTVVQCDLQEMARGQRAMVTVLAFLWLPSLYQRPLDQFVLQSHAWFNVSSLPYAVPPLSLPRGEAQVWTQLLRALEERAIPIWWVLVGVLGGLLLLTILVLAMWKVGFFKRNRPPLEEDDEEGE
T2 sequence (P05106 27-788): as the sequence (P05106 27-788) above
Chain of GPIIb/IIIa (P08514 32-887 limits assumed): as the sequence (P08514 32-887 limits assumed) above
Chain of GPIIb/IIIa (P08514 891-1039 partner limits assumed): as the sequence (P08514 891-1039 partner limits assumed) above
Chain of GPIIb/IIIa (P05106 27-788): as the sequence (P05106 27-788) above

Compound	IC50 [3]	IC50 [4]	IC50 ([1]; reported in WO 99/38849)	IC50 [2]	IC50 ([1]; reported in WO 99/52872)
O=C(NC[C@H](NS(=O)(=O)c1ccccc1)C(=O)O)c1ccc(N2CCN(C3=NCCCN3)CC2)c(Cl)c1 [Example A-1, (2S)-2-benzenesulfonylamino-3-[3-chloro-4-[4-(1,4,5,6-tetrahydropyrimidin-2-yl)piperazin-1-yl]benzoylamino]propanoic acid]	–	–	≤ 0.2 nM	–	–
O=C(NC[C@H](NS(=O)(=O)c1ccccc1)C(=O)O)c1ccc(N2CCC(NC3=NCCCN3)CC2)c(F)c1 [Example A-2, (2S)-2-benzenesulfonylamino-3-[3-fluoro-4-[[4-(1,4,5,6-tetrahydropyrimidin-2-yl)amino]-piperidin-1-yl]benzoylamino]propanoic acid]	–	–	–	≤ 1 nM	≤ 1 nM
CC(C)(C)COC(=O)N[C@@H](CNC(=O)C1CCN(c2cccc(NC3=NCCCN3)c2)CC1)C(=O)O [Ex. 93, (2S)-2-neopentyloxycarbonylamino-3-[[1-[3-(1,4,5,6-tetrahydropyrimidin-2-yl)aminophenyl]piperidin-4-yl]carbonylamino]propanoic acid]	150 nM	0.2 nM	–	–	–
O=C(C[C@H](NC(=O)OCc1ccccc1)C(=O)O)NC1CCN(c2cccc(NC3=NCCCN3)c2)CC1 [Ex. 146, (2S)-2-benzyloxycarbonylamino-4-[[1-[3-(1,4,5,6-tetrahydropyrimidin-2-yl)aminophenyl]piperidin-4-yl]amino]-4-oxobutanoic acid]	4200 nM	1 nM	–	–	–
CCCCCCNC(=O)N[C@@H](CNC(=O)C1CCN(c2cccc(NC3=NCCCN3)c2)CC1)C(=O)O [Ex. 117, (2S)-2-hexylaminocarbonylamino-3-[[1-[3-(1,4,5,6-tetrahydropyrimidin-2-yl)aminophenyl]piperidin-4-yl]carbonylamino]propanoic acid]	88 nM	0.35 nM	–	–	–
O=C(N[C@@H](CCC(=O)N1CCN(c2cccc(NC3=NCCN3)c2)CC1)C(=O)O)OCc1ccccc1 [Ex. 122]	720 nM	0.16 nM	–	–	–
COc1ccc(NC2=NCCCN2)cc1N1CCN(C(=O)CC[C@H](NC(=O)OCc2ccccc2)C(=O)O)CC1 [Ex. 154, (2S)-2-benzyloxycarbonylamino-5-[4-[2-methoxy-5-(1,4,5,6-tetrahydropyrimidin-2-yl)aminophenyl]piperazin-1-yl]-5-oxopentanoic acid]	530 nM	0.096 nM	–	–	–
O=C(N[C@@H](CCC(=O)N1CCC(c2cccc(NC3=NCCCN3)c2)CC1)C(=O)O)OCc1ccccc1 [Ex. 148, (2S)-2-benzyloxycarbonylamino-5-[4-[3-(1,4,5,6-tetrahydropyrimidin-2-yl)aminophenyl]piperidin-1-yl]-5-oxopentanoic acid]	420 nM	0.17 nM	–	–	–
CC(C)COC(=O)N[C@@H](CNC(=O)C1CCN(c2cccc(NC3=NCC(O)CN3)c2)CC1)C(=O)O (stereo partly drawn) [Ex. 20, (2S)-2-Isobutoxycarbonylamino-3-[[1-[3-(5-hydroxy-1,4,5,6-tetrahydropyrimidin-2-yl)aminophenyl]piperidin-4-yl]carbonylamino]-propanoic acid]	37 nM	0.061 nM	–	–	–

Continued by falling IC50 [3], values first:

IC50 [3]	IC50 [4]	Compound	IC50 ([1]; reported in WO 99/38849)	IC50 [2]	IC50 ([1]; reported in WO 99/52872)
86 nM	0.06 nM	O=C(N[C@@H](CNC(=O)C1CCN(c2cc(NC3=NCCCN3)ccn2)CC1)C(=O)O)OCc1ccccc1 [Ex. 159, (2S)-2-benzyloxycarbonylamino-3-[[1-[4-(1,4,5,6-tetrahydropyrimidin-2-yl)aminopyridin-2-yl]piperidin-4-yl]carbonylamino]-propanoic acid]	–	–	–
77 nM	0.1 nM	CC(C)COC(=O)N[C@@H](CNC(=O)C1CCN(c2cc(NC3=NCCCN3)ccn2)CC1)C(=O)O [Ex. 161]	–	–	–
60 nM	0.08 nM	C=CCOC(=O)N[C@@H](CNC(=O)C1CCN(c2cccc(NC3=NCCCN3)c2)CC1)C(=O)O [Ex. 96, (2S)-2-allyloxycarbonylamino-3-[[1-[3-(1,4,5,6-tetrahydropyrimidin-2-yl)aminophenyl]piperidin-4-yl]carbonylamino] propanoic acid]	–	–	–
60 nM	0.21 nM	COCCOC(=O)N[C@@H](CNC(=O)C1CCN(c2cccc(NC3=NCCCN3)c2)CC1)C(=O)O [Ex. 94, (2S)-2-(2-methoxyethoxycarbonylamino)-3-[[1-[3-(1,4,5,6-tetrahydropyrimidin-2-yl)aminophenyl]piperidin-4-yl]carbonylamino]-propanoic acid]	–	–	–
43 nM	0.06 nM	O=C(N[C@@H](CNC(=O)C1CCN(c2cccc(NC3=NCCCN3)c2)CC1)C(=O)O)OCc1ccccc1 [Ex. 2, (2S)-2-benzyloxycarbonylamino-3-[[1-[3-(1,4,5,6-tetrahydropyrimidin-2-yl)aminophenyl]piperidin-4-yl]carbonylamino]propanoic acid]	–	–	–
13 nM	0.055 nM	COc1ccc(NC2=NCCCN2)cc1N1CCC(C(=O)NC[C@H](NC(=O)OCc2ccccc2)C(=O)O)CC1 [Ex. 152, (2S)-2-benzyloxycarbonylamino-3-[[1-[2-methoxy-5-(1,4,5,6-tetrahydropyrimidin-2-yl)aminophenyl]piperidin-4-yl]carbonylamino]propanoic acid]	–	–	–
